In patent publication US9161986B2, “Nanoparticle containing prostaglandin I2 derivative” (LTT BIO-PHARMA CO., LTD., priority 2011, dated 2015):

How the values were obtained:
[1] = tested on: primary pulmonary hypertension; details: primary pulmonary hypertension group treated with epoprostenol; previous studies; cited from earlier work
[2] = measure of chemical stability; cited from earlier work
[3] = Formation of insoluble complex in presence or absence of ferric chloride; assay type: physicochemical; details: various amounts of diethanolamine
Method: To confirm this, the pH change of the solution and the percentage of beraprost sodium remaining in its supernatant when various amounts of diethanolamine (DEA) was added to the solution in the presence or absence of ferric chloride were examined.
Specifically, the pH of the solution was adjusted by adding diethanolamine to the aqueous solution of an iron ion of a specific concentration (455 mM) and beraprost sodium (32.5 mM) so that various pHs of the solution were obtained. The solution (suspension) was centrifuged at 16,500 g for 10 minutes, and the amount of beraprost sodium dissolved in the supernatant was determined by HPLC. The pH of the solution was also measured.
On the other hand, the pH of the solution was adjusted by adding diethanolamine to the aqueous solution of beraprost sodium (32.5 mM) in which hydrochloric acid was used instead of an iron ion of a specific concentration so that various pHs of the solution were obtained. The solution (suspension) was centrifuged at 16,500 g for 10 minutes, and the amount of beraprost sodium dissolved in the supernatant was determined by HPLC. The pH of the solution was also measured.

[4] = Evaluation of drug retention in blood after intravenous administration; assay type: in vivo, male Wister rats; details: intravenous via tail vein, rats, n=3; FIG. 5
Method: Either beraprost sodium nanoparticles or beraprost sodium (comparative example) was administered to male Wister rats (5 week old, n=3) intravenously via a tail vein. After administration, a tail vein different from the administration site was cut with a scalpel at specified times, and blood samples were collected by using blood collection tubes (heparin-treated). A sample solution was prepared by adding 50 μL, of the blood to a microfuge tube containing 1,4-dioxane (150 μL). The sample solution was centrifuged (13,200 rpm, 4° C., and 10 minutes), and then, beraprost sodium contained in the supernatant was determined by HPLC.

cAMP = assay: Continuous increase of plasma cAMP after intravenous administration (cAMP ELISA); assay type: in vivo, male Wister rats; details: intravenous via tail vein, rats, n=2; FIG. 6
Method: Prostacyclin leads to relaxation of vascular smooth muscle and exerts a dilation effect on a pulmonary vessel by activating adenyl cyclase via a prostacyclin receptor on the vascular smooth muscle and increasing the concentration of cAMP. Therefore, the present inventors investigated whether cAMP increased continuously when the beraprost sodium-containing nanoparticle of the present invention was administered. Either beraprost sodium-containing nanoparticles or beraprost sodium (comparative example) was administered to male Wister rats (5 week old, n=2) intravenously via a tail vein. After administration, a tail vein different from the administration site was cut with a scalpel at specified times, and blood samples were collected by using blood collection tubes. […] This blood plasma sample was diluted as appropriate and cAMP contained in the […] was determined by using a cAMP ELISA kit. The method of measurement followed the protocol made by Assay Designs Inc.

[5] = tested on: pulmonary vascular resistance; details: treatment for three months, clinical trials; cited from earlier work
[6] = in vivo; cited from earlier work
[7] = oral; cited from earlier work

| Compound | three-year survival rate [1] | chemical half-life [2] | formation of insoluble complex ([3]; in the absence of ferric chloride (hydrochloric acid instead), FIG. 3) | formation of insoluble complex ([3]; in the presence of ferric chloride, FIG. 2) | drug retention in the blood [4] | continuous increase of cAMP in the plasma (cAMP) | pulmonary vascular resistance [5] | biological half-life [6] | half-life of the blood concentration [7] [h] |
| --- | --- | --- | --- | --- | --- | --- | --- | --- | --- |
| CCCCC[C@H](O)/C=C/[C@@H]1[C@H]2C/C(=C/CCCC(=O)O)O[C@H]2C[C@H]1O [epoprostenol] | about 70% | about 10 minutes | – | – | – | – | – | – | – |
| CC#CCC(C)[C@H](O)/C=C/[C@@H]1[C@H]2c3cccc(CCCC(=O)[O-])c3O[C@H]2C[C@H]1O.[Na+] (stereo partly drawn) [beraprost sodium] | – | – | no insoluble complex was formed | formation of an insoluble complex | little beraprost sodium existed in the blood as early as 3 hours after its administration | no continuous increase of cAMP was observed | significantly decreased the pulmonary vascular resistance | about 1.1 hours | 1.1 |
